Measurements: the NIST ThermoML archive (doi:10.1016/j.fluid.2015.12.032)

Conditions: 101.33 kPa, Liquid, Falling or rolling sphere viscometry

CCCC[N+]1(C)CCOCC1.N#C[C-](C#N)C#N [4-butyl-4-methylmorpholinium tricyanomethanide]
Conditions	viscosity [mPa·s]
288.15 K	500.4
298.15 K	225.5
308.15 K	118.4
318.15 K	69.89
328.15 K	44.14
338.15 K	30.31
348.15 K	21.9
358.15 K	16.33
368.15 K	12.77
